Experimental data taken from article PMC3199943, “Screening the MayBridge Rule of 3 Fragment Library for Compounds That Interact with the Trypanosoma brucei myo-Inositol-3-Phosphate Synthase and/or Show Trypanocidal Activity” (Molecular Biology International, 2011).
Where two headings read alike, the source gives them in different places.

Assays:
[1] = molecular target: T1, TbINO1 (Trypanosoma brucei brucei, UniProt Q5QQ46); assay: biochemical; type: binding
T1 sequence (Q5QQ46 1-528): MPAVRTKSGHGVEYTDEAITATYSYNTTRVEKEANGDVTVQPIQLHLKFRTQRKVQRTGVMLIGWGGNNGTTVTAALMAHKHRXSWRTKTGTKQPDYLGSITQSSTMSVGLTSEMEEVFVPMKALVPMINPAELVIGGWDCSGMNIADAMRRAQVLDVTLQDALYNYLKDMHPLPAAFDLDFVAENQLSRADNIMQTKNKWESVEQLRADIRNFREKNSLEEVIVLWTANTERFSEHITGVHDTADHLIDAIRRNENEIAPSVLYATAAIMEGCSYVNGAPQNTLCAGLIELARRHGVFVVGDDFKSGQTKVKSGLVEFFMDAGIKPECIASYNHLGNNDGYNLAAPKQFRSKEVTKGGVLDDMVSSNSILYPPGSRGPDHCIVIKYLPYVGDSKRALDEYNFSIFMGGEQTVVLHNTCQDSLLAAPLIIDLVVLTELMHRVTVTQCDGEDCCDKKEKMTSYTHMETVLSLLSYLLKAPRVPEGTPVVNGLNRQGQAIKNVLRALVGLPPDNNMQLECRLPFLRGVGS

[2] = tested on: HeLa cells; assay: cells; conditions: for viability at 500 µM / CC50: Homo sapiens, HeLa; for viability at 500 µM: 65 h; for HeLa Cells Alamar Blue: Supplementary Table 1, compound 0.5 mM, percentage of controls, mean ± SD (n=3) or SE (n=2); for CC50: read-out: HeLa ED50
Outline: (§1)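 Alamar Blue read-out after a 5 h dye incubation that followed ~65 h compound exposure. Cells: HeLa or A549, 2 × 10^4/well, DMEM + 10% FCS + 2 mM L-Glutamine.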

[3] = tested on: A549 cells; assay: Cytotoxicity against A549 cells, Alamar Blue; type: cell-based; conditions: Supplementary Table 1, compound 0.5 mM, percentage of controls (n=1); for viability at 500 µM: Homo sapiens, A549, 65 h
Outline: as §1

[4] = read-out: Tb Ino1 Tm Shift [˚C]
[5] = read-out: HeLa Cells Alamar Blue
[6] = read-out: HeLa Cells Alamar Blue (% survival)
[7] = Supplementary Table 1, compound 1mM, mean ± SD from Boltzman curve fitting

Structure (SMILES) | ΔTm at 1000 µM [1, 4] [°C] | viability at 500 µM [2, 5] [%] | viability at 500 µM [3] [%] | other results
COC(=O)c1cccc(N)c1 [compound 194, methyl 3‐aminobenzoate] | 0.78 ± 0.06 | 88.3 ± 9.2 | 38.9 | 
NC1=CC=C2OCOCC2C1 (centres unmarked) [compound 195, 4,5‐dihydro‐1,3‐benzodioxine‐6‐amine] | 1.16 ± 0.06 | 77.4 ± 10.5 | 54.1 | 
Cc1ccc(C(=O)O)c(N)c1 [compound 196, 2‐amino‐4‐methylbenzoic acid] | 1.1 ± 0.06 | 97.4 ± 4.1 | 36.7 | 
CC(=O)c1ccc(C#N)s1 [compound 198, 5‐acetylthiophene‐2‐carbonitrile] | 0.24 ± 0.07 | 93.3 ± 15.3 | 61.2 | 
O=C(O)Cc1ccccc1O [compound 201, 2‐(2‐hydroxyphenyl)acetic acid] | 0.65 ± 0.08 | 94.1 ± 15.7 | 94.2 | 
O=C(O)C(O)c1ccccc1 (centres unmarked) [compound 202, 2‐hydroxy‐2‐phenylacetic acid] | 0 | 96.7 ± 12.5 | 55.6 | 
OCc1cccc2c1OCO2 [compound 203, 1,3‐benzodioxol‐4‐ylmethanol] | 0.06 ± 0.08 | 94.6 ± 14.1 | 60.8 | 
CC(=O)c1c(O)cccc1O [compound 204, 1-(2,6-dihydroxyphenyl)ethan-1-one] |  | 36.3 ± 12.5 | 34.4 | ΔTm at 1000 µM ([1]; read-out: TbIno1 Tm shift [°C]): 2.35 ± 0.06 °C; viability at 500 µM [2, 6]: 36.3 ± 12.5%
CC1(C(=O)O)CC2C=CC1C2 (centres unmarked) [compound 205, 2‐methylbicyclo[2.2.1]hept‐5‐ene‐2‐carboxylic acid] |  |  |  | Tb Ino1 Tm Shift [˚C] [1, 7]: 0.08 ± 0.08 °C; HeLa Cells Alamar Blue [2]: 92.1 ± 17.2 percentage of controls; A549 Cells Alamar Blue [3]: 53.8 percentage of controls
CC(=O)N1CCC(C#N)CC1 [compound 207, 1‐acetylpiperidine‐4‐carbonitrile] | 0.03 ± 0.07 | 90 ± 2.9 | 65.3 | 
N#Cc1c(N)cccc1Cl [compound 210, 2‐amino‐6‐chlorobenzonitrile] | 0.15 ± 0.08 | 91.5 ± 10.8 | 89.2 | 
Clc1ccc(Cl)s1 [compound 211, 2,5‐dichlorothiophene] | 0.02 ± 0.08 | 99.6 ± 4.1 | 117 | 
COC(=O)c1cc(C)[nH]c1C [compound 214, methyl 2,5‐dimethyl‐1H‐pyrrole‐3‐carboxylate] |  |  |  | Tb Ino1 Tm Shift [˚C] [1, 7]: 0.78 ± 0.06 °C; HeLa Cells Alamar Blue [2]: 74.8 ± 18 percentage of controls; A549 Cells Alamar Blue [3]: 64.4 percentage of controls
NC(=S)Nc1ccncc1 [compound 215, N‐(4‐pyridyl)thiourea] | 0.03 ± 0.08 | 98.3 ± 16.5 | 59.6 | 
Cn1nc(C(C)(C)C)cc1N [compound 216, 3‐(tert‐butyl)‐1‐methyl‐1H‐pyrazol‐5‐amine] |  |  |  | Tb Ino1 Tm Shift [˚C] [1, 7]: 0.15 ± 0.07 °C; HeLa Cells Alamar Blue [2]: 80.1 ± 11.3 percentage of controls; A549 Cells Alamar Blue [3]: 56.7 percentage of controls
N#Cc1cc(Cl)ccc1O [compound 218, 5‐chloro‐2‐hydroxybenzonitrile] | 0.43 ± 0.07 | 92 ± 11.8 | 67.7 | 
OCc1cn2ccsc2n1 [compound 221, imidazo[2,1‐b]thiazol‐6‐ylmethanol] | 0.09 ± 0.23 | 107 ± 7.6 | 99.5 | 
N#CCCNCC1CCCO1 (centres unmarked) [compound 224, 3‐[(tetrahydrofuran‐2‐ylmethyl)amino]propanenitrile] |  |  |  | Tb Ino1 Tm Shift [˚C] [1, 7]: 0.21 ± 0.09 °C; HeLa Cells Alamar Blue [2]: 96.5 ± 13.7 percentage of controls; A549 Cells Alamar Blue [3]: 60 percentage of controls
Clc1ccc2nonc2c1 [compound 225, 5‐chloro‐2,1,3‐benzoxadiazole] | 0.81 ± 0.19 | 91.4 ± 15.1 | 68.9 | 
CC(=O)c1sc(C)nc1C [compound 226, 1‐(2,4‐dimethyl‐1,3‐thiazol‐5‐yl)ethan‐1‐one] |  |  |  | Tb Ino1 Tm Shift [˚C] [1, 7]: 0.37 ± 0.1 °C; HeLa Cells Alamar Blue [2]: 85.8 ± 10.4 percentage of controls; A549 Cells Alamar Blue [3]: 62 percentage of controls
Cc1cc(C(N)=S)n(C)n1 [compound 227, 1,3‐dimethyl‐1H‐pyrazole‐5‐carbothioamide] |  |  |  | Tb Ino1 Tm Shift [˚C] [1, 7]: 0.57 ± 0.1 °C; HeLa Cells Alamar Blue [2]: 106.7 ± 5.8 percentage of controls; A549 Cells Alamar Blue [3]: 50.9 percentage of controls

Structure (SMILES) | ΔTm at 1000 µM [1, 4] [°C] | viability at 500 µM [2, 5] [%] | viability at 500 µM [3] [%] | other results
Cc1nc(C(C)(C)C)cs1 [compound 229, 4‐(tert‐butyl)‐2‐methyl‐1,3‐thiazole] | 0.23 ± 0.07 | 108 ± 11.8 | 65.6 | 
Cc1ccc(CN)cc1Cl [compound 233, 3‐chloro‐4‐methylbenzylamine] | 0.11 ± 0.08 | 91.7 ± 12.6 | 163 | 
CC(=O)c1ccc(F)c(F)c1 [compound 234, 1‐(3,4‐difluorophenyl)ethan‐1‐one] | 0.14 ± 0.08 | 90.3 ± 14 | 73.9 | 
c1cc(-c2ccncc2)ccn1 [compound 235, 4,4'‐dipyridyl] |  | 63.7 ± 17.4 | 54.8 | ΔTm at 1000 µM ([1]; Supplementary Table 1, compound 1mM, mean ± SD from Boltzman curve fitting, read-out: Tb Ino1 Tm Shift [˚C]): 0.2 ± 0.07 °C
O=C(O)CCc1cccs1 [compound 237, 3‐(2‐thienyl)propanoic acid] | 0.22 ± 0.07 | 113 ± 7.8 | 70.9 | 
COC(=O)Cc1ccsc1 [compound 238, methyl 2‐(3‐thienyl)acetate] | 0.39 ± 0.07 | 111 ± 9.9 | 64.7 | 
Cc1csc(N)c1C(N)=O [compound 239, 2-amino-4-methylthiophene-3-carboxamide] |  | 95.8 ± 9.3 | 69.8 | ΔTm at 1000 µM ([1]; read-out: TbIno1 Tm shift [°C]): 2.05 ± 0.05 °C; viability at 500 µM [2, 6]: 95.8 ± 9.3%; CC50 [2]: > 20000 µM
COC(=O)c1sccc1N [compound 241, methyl 3‐aminothiophene‐2‐carboxylate] | 0.38 ± 0.09 | 94.5 ± 13 | 108 | 
COC(=O)c1ccsc1N [compound 242, methyl 2‐aminothiophene‐3‐carboxylate] | 0.34 ± 0.08 | 37 ± 6.1 | 80.5 | 
COC(=O)c1cscc1N [compound 244, methyl 4‐aminothiophene‐3‐carboxylate] | 0.61 ± 0.11 | 78.7 ± 17.9 | 90.3 | 
COC(=O)c1sccc1O [compound 247, methyl 3‐hydroxythiophene‐2‐carboxylate] |  |  |  | Tb Ino1 Tm Shift [˚C] [1, 7]: 0.2 ± 0.07 °C; HeLa Cells Alamar Blue [2]: 95.4 ± 6.1 percentage of controls; A549 Cells Alamar Blue [3]: 108.7 percentage of controls
c1cncc(Cn2cccc2)c1 [compound 248, 3‐(1H‐pyrrol‐1‐ylmethyl)pyridine] | 0 | 91.3 ± 11.9 | 86.6 | 
Nc1cccc(-n2cccc2)c1 [compound 251, 3‐(1H‐pyrrol‐1‐yl)aniline] | 0.15 ± 0.05 | 80.5 ± 3.4 | 79.8 | 
Cc1nc(C(N)=S)cs1 [compound 252, 2‐methyl‐1,3‐thiazole‐4‐carbothioamide] | 0.7 ± 0.07 | 90.3 ± 10.7 | 102 | 
OCc1ccc2ccccc2n1 [compound 256, 2-quinolinylmethanol] |  | 99.2 ± 19.5 | 119 | ΔTm at 1000 µM ([1]; read-out: TbIno1 Tm shift [°C]): 2.2 ± 0.06 °C; viability at 500 µM [2, 6]: 99.2 ± 19.5%; CC50 [2]: 836 ± 68 µM
Nc1ccc(-c2ccco2)cc1 [compound 257, 4‐(2‐furyl)aniline] | 0.83 ± 0.04 | 17 ± 12.7 | 75.7 | CC50 [2]: 114 ± 8 µM
Cc1cc(O)nc2ccccc12 [compound 258, 4‐methyl‐2‐quinolinol] | 0.17 ± 0.06 | 92.7 ± 13.6 | 90.7 | 
Cc1cc2c(N)cccc2nn1 [compound 261, 3-methylcinnolin-5-amine] |  | 62.5 ± 14.7 | 74.1 | ΔTm at 1000 µM ([1]; read-out: TbIno1 Tm shift [°C]): 1.83 ± 0.11 °C; viability at 500 µM [2, 6]: 62.5 ± 14.7%; CC50 [2]: 726 ± 64 µM
Nc1ccccc1-n1ccnc1 [compound 262, 2‐(1H‐imidazol‐1‐yl)aniline] | 0.62 ± 0.08 | 66.5 ± 16.1 | 76 | 
Nc1cccc(-c2cnco2)c1 [compound 267, 3‐(1,3‐oxazol‐5‐yl)aniline] | 0.13 ± 0.09 | 75 ± 15.2 | 79.8 | 
